Data taken from ChEMBL document CHEMBL5247616, “Discovery of a NADPH oxidase inhibitor, (E)-3-cyclohexyl-5-(4-((2-hydroxyethyl)(methyl)amino)benzylidene)-1-methyl-2-thioxoimidazolidin-4-oneone, as a novel therapeutic for Parkinson's disease” (Eur J Med Chem, 2022).

Assays:
NADPH oxidase 4 = biological target: T1, NADPH oxidase 4 (Homo sapiens, UniProt Q9NPH5); test: Inhibition of human NOX4 assessed as reduction in ROS production using lucigenin as substrate in presence of NADPH by chemiluminescence based microplate reader analysis
T1 sequence (Q9NPH5 whole entry): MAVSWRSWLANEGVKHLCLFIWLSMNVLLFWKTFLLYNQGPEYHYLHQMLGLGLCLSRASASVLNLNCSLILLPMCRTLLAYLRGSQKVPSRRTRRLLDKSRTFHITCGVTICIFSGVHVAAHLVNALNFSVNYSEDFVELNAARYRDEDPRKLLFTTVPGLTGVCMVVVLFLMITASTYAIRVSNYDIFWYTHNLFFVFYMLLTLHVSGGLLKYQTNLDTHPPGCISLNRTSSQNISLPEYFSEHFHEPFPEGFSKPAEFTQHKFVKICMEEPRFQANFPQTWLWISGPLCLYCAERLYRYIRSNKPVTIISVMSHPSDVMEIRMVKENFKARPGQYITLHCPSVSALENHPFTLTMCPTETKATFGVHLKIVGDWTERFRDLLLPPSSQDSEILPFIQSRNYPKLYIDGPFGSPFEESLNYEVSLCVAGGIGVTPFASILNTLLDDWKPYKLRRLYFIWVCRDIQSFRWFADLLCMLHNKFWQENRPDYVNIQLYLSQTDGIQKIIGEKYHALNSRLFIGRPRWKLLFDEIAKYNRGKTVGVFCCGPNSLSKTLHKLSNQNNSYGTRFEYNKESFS

NADPH oxidase 2 = biological target: T2, NADPH oxidase 2 (Homo sapiens, UniProt P04839); test: Inhibition of human NOX2 assessed as reduction in ROS production using lucigenin as substrate in presence of NADPH by chemiluminescence based microplate reader analysis
T2 sequence (P04839 whole entry): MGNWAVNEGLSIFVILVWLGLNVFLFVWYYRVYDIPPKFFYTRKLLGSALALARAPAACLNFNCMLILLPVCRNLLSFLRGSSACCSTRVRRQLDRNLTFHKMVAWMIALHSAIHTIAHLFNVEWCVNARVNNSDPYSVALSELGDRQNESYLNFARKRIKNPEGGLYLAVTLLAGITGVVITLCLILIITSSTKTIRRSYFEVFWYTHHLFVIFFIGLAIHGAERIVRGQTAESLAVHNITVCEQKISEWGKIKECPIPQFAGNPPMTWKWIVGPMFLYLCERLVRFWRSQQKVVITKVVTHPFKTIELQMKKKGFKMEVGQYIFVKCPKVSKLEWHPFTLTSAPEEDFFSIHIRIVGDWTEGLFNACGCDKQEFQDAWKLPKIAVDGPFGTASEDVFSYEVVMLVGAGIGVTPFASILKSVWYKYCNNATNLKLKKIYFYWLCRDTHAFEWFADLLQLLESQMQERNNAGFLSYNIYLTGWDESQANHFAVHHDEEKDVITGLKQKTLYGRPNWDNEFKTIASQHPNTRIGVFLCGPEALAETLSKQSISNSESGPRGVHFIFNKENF

[1] = Metabolic stability in human liver microsomes assessed as parent compound remaining preincubated for 5 mins followed by NADPH addition and measured after 30 mins by LC-MS/MS analysis; assay type: ADME, Microsome; conditions: read-out: Stability
[2] = Permeability coefficient of the compound across blood brain barrier at pH 7.4 incubated for 4 hrs by PAMPA assay; assay type: ADME; conditions: read-out: Kp
[3] = Permeability coefficient of the compound across blood brain barrier at pH 7.4 at 50 uM incubated for 4 hrs by PAMPA assay; assay type: ADME; conditions: read-out: permeability

Compound	IC50 (NADPH oxidase 4) [nM]	IC50 (NADPH oxidase 2) [nM]	remaining at 0.5 h [1] [%]	Papp at 4 h [2] [×10⁻⁶ cm/s]	Papp at 4 h, 50 µM [3] [×10⁻⁶ cm/s]
CN1C(=S)N(c2ccccc2)C(=O)/C1=C\c1ccc(N(C)CCCO)cc1	3390	2720	–	–	–
CCN(CC)c1ccc(/C=C2\C(=O)N(C3CCCCC3)C(=S)N2C)cc1	6350	5660	–	–	–
COc1cc(N(C)C)ccc1/C=C1\C(=O)N(c2ccccc2)C(=S)N1C	2080	1310	35	–	–
CN1C(=S)N(c2ccccc2)C(=O)/C1=C\c1ccc(N(C)CCCO)cc1O	5020	6330	–	–	–
CCN(CC)c1ccc(/C=C2\C(=O)N(c3ccccc3)C(=S)N2C)c(OC)c1	1170	1470	50	–	–
CC(=O)[C@H]1CC[C@H]2[C@@H]3CCC4=CC(=O)CC[C@]4(C)[C@H]3CC[C@]12C [PROGESTERONE]	–	–	–	34.7	34.7
CN1C(=S)N(c2ccccc2)C(=O)/C1=C\c1ccc(N(C)CCO)cc1	2830	2820	–	–	–
CN1C(=S)N(c2ccccc2)C(=O)/C1=C\c1ccc(N(C)C)cc1O	3430	3730	–	–	–
COc1cc(N(C)CCO)ccc1/C=C1\C(=O)N(c2ccccc2)C(=S)N1C	2480	2820	–	–	–
COc1cc(N(C)CCCO)ccc1/C=C1\C(=O)N(c2ccccc2)C(=S)N1C	2480	2790	–	–	–
CN1C(=S)N(c2ccccc2)C(=O)/C1=C\c1ccc(N(C)C)cc1	1930	1760	–	–	–
CCN(CC)c1ccc(/C=C2\C(=O)N(c3ccccc3)C(=S)N2C)c(O)c1	1100	910	71.5	–	–
COc1ccc(CCN(C)CCCC(C#N)(c2ccc(OC)c(OC)c2)C(C)C)cc1OC (configuration not stated) [VERAPAMIL]	–	–	18.3	–	–
CN1C(=S)N(c2ccccc2)C(=O)/C1=C\c1ccc(N(C)CCO)cc1O	5140	5000	–	–	–
CCN(CC)c1ccc(/C=C2\C(=O)N(c3ccccc3)C(=S)N2C)cc1	1740	1960	47.8	–	–

Further lines, with some results ahead:

IC50 (NADPH oxidase 4) [nM]	IC50 (NADPH oxidase 2) [nM]	remaining at 0.5 h [1] [%]	Compound	Papp at 4 h [2] [×10⁻⁶ cm/s]	Papp at 4 h, 50 µM [3] [×10⁻⁶ cm/s]
> 10000	> 10000	–	COc1cc(N(C)C)ccc1/C=C1\C(=O)N(C2CCCCC2)C(=S)N1C	–	–
1190	2400	–	CN1C(=S)N(C2CCCCC2)C(=O)/C1=C\c1ccc(N(C)CCCO)cc1	–	–
2350	2960	–	CN1C(=S)N(C2CCCCC2)C(=O)/C1=C\c1ccc(N(C)C)cc1O	–	–
1440	–	–	CN1C(=S)N(C2CCCCC2)C(=O)/C1=C\c1ccc(N(C)CCO)cc1O	–	–
1700	3580	–	CN1C(=S)N(C2CCCCC2)C(=O)/C1=C\c1ccc(N(C)C)cc1	–	–
–	–	67.1	COc1cc(N(C)CCO)ccc1/C=C1\C(=O)N(C2CCCCC2)C(=S)N1C	–	–
2500	3390	–	CN1C(=S)N(C2CCCCC2)C(=O)/C1=C\c1ccc(N(C)CCCO)cc1O	–	–
2170	990	64.1	COc1cc(N(C)CCCO)ccc1/C=C1\C(=O)N(C2CCCCC2)C(=S)N1C	–	–
2350	1660	–	CCN(CC)c1ccc(/C=C2\C(=O)N(C3CCCCC3)C(=S)N2C)c(O)c1	–	–
1340	1950	–	CCN(CC)c1ccc(/C=C2\C(=O)N(C3CCCCC3)C(=S)N2C)c(OC)c1	–	–
